Data on six molecules can be found in US4908364A, “Substituted 3-phenyl-7H-thiazol[3,2-b][1,2,4]-triazin-7-ones” (Hoechst Aktiengesellschaft, priority 1987, dated 1990).

One data set deals with Adjuvant arthritis. The experiment in a line: Adjuvant arthritis (paw volume increase). The format is in vivo, male rats of a Wistar-Lewis strain. To be noted: for Adjuvant arthritis (% inhibition at 50 mg/kg p.o.): rat, 50 mg/kg p.o. once daily, day 1 to day 5, reduction in increase in paw volume vs control; for ED50: Rattus norvegicus, po, read-out: ED50 in adjuvant arthritis. Here is the method: The investigations were carried out by the method of Pearson (Arthrit. Rheum. 2 (1959) p. 44). The experimental animals used were male rats of a Wistar-Lewis strain having a body weight between 130 and 200 g. The compounds to be tested were administered orally (p.o.) once daily from day 1 to day 5 of the experiment in doses of 50 mg per kg of body weight. The animals of a control group received only the vehicle. Each preparation and control group comprised 8 animals. The criterion used to determine an action was the percentage reduction in the increase in paw volume compared to that of the untreated control group.

A short description of data set [1]: Acute gastral ulcerogenity. More on the design: species or system male Sprague-Dawley rats. To be noted: rat, in vivo, po. Here is the method: The investigation took place in each case on 10 male Sprague-Dawley rats in which the gastric mucous membrane had been sensitized by hunger stress. The body weight of the animals was between 200 and 300 g. While allowing free access to the drinking water, the feed was withdrawn 48 hours before administration of the test preparations until sacrifice of the animals. The rats were sacrificed 24 hours after oral administration of the substance, and the stomachs were removed, cleaned under running water and inspected for mucous membrane lesions. All macroscopically visible lesions were regarded as ulcers. The number of animals having ulcers was determined for each dose, and the UD50 values, i.e. the doses at which lesions were caused in 50% of the animals, were calculated from this number by the method of Litchfield and Wilcoxon (J. Pharmacol. Exp. Ther. 96 (1949) p. 99).

The nature of the next data set: in vivo. To be noted: mouse, ip; for LD50 at 168 h: read-out: Acute toxicity LD50. As to the method:
The LD50 values were determined by a standard method from the mortality occurring within 7 days in NMRI (Naval Medical Research Institute) mice (6 animals per dose) after a single intraperitoneal (i.p.) administration.

For data set [2], the system named is lymphocytes. The data set is described as follows: Stimulation of suppressed immune response of lymphocytes towards mitogens in adjuvant arthritis. The format is in vivo, rat. To be noted: oral, Example 1 at 3.15 and 6.3 mg/kg, naproxen in doses up to 25 mg/kg.
Data set [3] has as its system Arthritis induced by type II collagen. The experiment in a line: Arthritis induced by type II collagen (paw volume). The format is in vivo, male Wistar rats. As to conditions: for inhibition of the increase in paw volume, collagen arthritis: oral once daily, 20-day treatment, naproxen at the same dosage. As to the method:
(§1) In this experiment, arthritis was induced in male Wistar rats using type II collagen, which was obtained by standard methods of Miller and Rhodes (Meth. Enzymol. 82 (1982) p. 33) from the nasal septum of the calf and, mixed with Freund's incomplete adjuvant, was injected intradermally into the animals. This immunization process was repeated 7 days later. 20 days after the initial immunization, the affected rats were divided into groups each comprising 7 animals, which received the particular test substance or the pure vehicle (control group) orally once daily in the subsequent 20-day treatment phase. On day 41 of the experiment, i.e. one day after the final administration of substance, the increase in volume of both rear paws was determined.

For data set [4], the system named is lymphocytes. The data set is described as follows: Immune activity of spleen lymphocytes towards mitogens in collagen arthritis. The class given is in vivo, male Wistar rats. To be noted: Example 1: 12 mg/kg p.o. Here is the method:
as §1
The immune status of lymphocytes is also disturbed sensitively in this model of collagen arthritis.

Data set [5] concerns Adriamycin-induced inflammation. The data set is described as follows: Adriamycin-induced inflammation. As to conditions: for Increase in paw volume: 72 hours, control 430; for Protective action in %: * significance p < 0.05; for protective effect against tissue destruction induced by Adriamycin: oral. The class given is in vivo, male Sprague-Dawley rats. The source says:
According to current opinion, aggressive oxygen radicals, which are formed to excess during the chronic inflammation process and, as highly toxic inflammation mediators themselves, perpetually maintain the connective tissue destruction which proceeds via an irreversible lipid peroxidation of the cell membranes, are permanently involved in the progressive course, caused by a multitude of factors, of rheumatoid arthritis and other inflammatory disorders. As a result, antioxidatively active pharmaceuticals having the ability to deactivate these extremely cytotoxic oxygen radicals should permit specific engagement in the chronic course of the inflammation. A suitable animal model for this type of tissue destruction caused by oxygen radicals is Adriamycin (doxorubicin) induced inflammation in rats. The investigations were carried out by the method of D. M. Siegel et al. (Inflammation 4 (1980) p. 233) on male Sprague-Dawley rats having a body weight between 200 and 230 g in groups of 7 animals each, which received 0.1 mg of Adriamycin, dissolved in 0.1 ml of a 0.9% strength sodium chloride solution, by subcutaneous injection into the left rear paw. The increase in paw volume was determined by plethysmographic measurement 72 hours thereafter as a measure of the degree of inflammation. The test preparations were administered orally in 1% strength aqueous carboxymethylcellulose suspension once daily on 4 successive days, starting with the day of Adriamycin injection.

For data set [6], the system named is microsomal lipid peroxidation. The data set is described as follows: In-vitro inhibition of lipid peroxidation, microsomes (thiobarbituric acid test). The class given is biochemical. As to conditions: microsomes from the rat liver. The source says:
(§2) Further convincing evidence of the pronounced protective action of the compounds according to the invention against aggressive oxygen radicals is provided by the thiobarbituric acid test of A. Ottolenghi (Arch. Biochem. Biophys. 79 (1959) pp. 355-363). Using this in-vitro method, the affect on microsomal and mitochondrial lipid peroxidation by antioxidatively active preparations can be determined from the malonodialdehyde produced on oxidative degredation of membrane-bound, polyunsaturated fatty acids.
(§3) Here too, the compounds of the formula I exerted a strong inhibitory action.

Data set [7] relates to mitochondrial lipid peroxidation. The experiment in a line: In-vitro inhibition of lipid peroxidation, mitochondria (thiobarbituric acid test). The format is biochemical. To be noted: mitochondria from the rat liver.
Excerpt: as §2, §3

For the next data set, the system named is 5-lipoxygenase. The experiment in a line: Inhibition of 5-lipoxygenase in isolated polymorphonuclear granulocytes. The class given is cell-based, human. As to conditions: concentration range between 10^-5 and 10^-6 mol/l, pre-incubation 15 minutes. Here is the method: The inhibitory action of the compounds according to the invention on 5-lipoxygenase-catalysed degredation of arachidonic acid was investigated,as usual, in in-vitro experiments on isolated polymorphonuclear human granulocytes. To this purpose, cells stimulated by calcium ionophor A 23 187 (Calbiochem GmbH, Frankfurt/Main, FRG, Biochemical and Immunochemical Catalog 1985, p. 284) were incubated with ^14 C-labeled arachidonic acid, and the major radioactive degredation products of arachidonic acid, 5-hydroxyeicosatetraenoic acid (5-HETE) and leukotriene […] (LTB4), which has a particularly strong proinflammatory action, formed after 15 minutes at 37° C. by biotransformation were determined quantitatively with the aid of a radio monitor after separation by high-pressure liquid chromatography (HPLC).

Another data set relates to Arthus reaction. The data set is described as follows: Active Arthus reaction. The class given is in vivo, female and male Sprague-Dawley rats. To be noted: oral. Here is the method:
The experimental animals used were female and male Sprague-Dawley rats having a body weight between 80 and 100 g; they were injected subcutaneously into the tail root with 0.5 ml of an emulsion of pertussis vaccine and ovalbumin in paraffin oil. After two weeks, the rats were divided into groups of 8 animals each. The respective test substance or the pure vehicle (positive control) were administered orally 24 hours and one hour before induction of the Arthus reaction by injecting 0.1 ml of a 0.4% strength ovalbumin solution into the right rear paw. Sodium chloride solution was injected into the left paw. A group of non-sensitized animals (negative control) was likewise treated with ovalbumin in order to be able to exclude non-specific reactions to the protein. The measurement parameter used for the action of the preparation was the inhibition of the increase in paw volume compared to that of a sensitized, but untreated control group (positive control) 4 hours after ovalbumin provocation, when the swelling reaches its maximum.

Where [8] appears, read: NMRI mice, single i.p. administration, mortality within 7 days.

Structures are written as SMILES. Like-named read-outs stand apart in the source and are kept apart here. Where only a bound is given, the exact number is not on record here.

As usually defined, the LD50 is the dose at which mortality reaches 50%. For `Cc1nn2c(-c3cc(C(C)(C)C)c(O)c(C(C)(C)C)c3)csc2nc1=O` [Example 6], in the data set on Adjuvant arthritis, the “Adjuvant arthritis (% inhibition at 50 mg/kg p.o.)” value is reported as 50%. Moreover, the TD50 at 24 h in data set [1] is more than 200 mg/kg. In addition, the LD50 at 168 h in the data set “in vivo” is more than 1200 mg/kg.
Regarding `Cc1cc(-c2csc3nc(=O)cnn23)cc(C(C)(C)C)c1O` [Example 2, 3-(3-Tert.butyl-5-methyl-4-hydroxyphenyl)-7H-thiazolo[3,2-b][1,2,4]triazin-7-one], in the data set on Adjuvant arthritis, the “Adjuvant arthritis (% inhibition at 50 mg/kg p.o.)” value is 41%. In data set [1], the TD50 at 24 h was more than 400 mg/kg. The LD50 at 168 h in “in vivo” (setting [8]) was more than 1200 mg/kg.
Broadly, the ED50 is the dose that gives a 50% effect, or the effect in half of the subjects. For orientation: IC50 means the point on the concentration scale where inhibition reaches its midpoint. The low end stands for inhibition by little substance, the high end for a need for much substance. As to `CC(C)(C)c1cc(-c2csc3nc(=O)cnn23)cc(C(C)(C)C)c1O` [Example 1, 3-(3,5-Di-tert.butyl-4-hydroxyphenyl)-7H-thiazolo[3,2-b][1,2,4]triazin-7-one], in the data set with Adjuvant arthritis, the 50% effective dose (ED50) turned out to be 10.9 mg/kg and the “Adjuvant arthritis (% inhibition at 50 mg/kg p.o.)” value was 67%. In data set [1], the TD50 at 24 h was more than 400 mg/kg and the selectivity ratio is more than 36.7. The selectivity ratio in the data set “in vivo” (LD50 (mice i.p.) / ED50 (adjuvant arthritis), read-out: therapeutic range, quotient LD50/ED50) is more than 110. For the same molecule, the LD50 at 168 h in the data set “in vivo” (setting [8]) is more than 1200 mg/kg. The “normalization of the immune reactivity of lymphocytes towards mitogens” value in the data set with lymphocytes [2] is listed as “substantial normalization of the immune reactivity”. The minimal effective dose in [3] (Rattus norvegicus, po, collagen arthritis, p.o., read-out: dose from which inhibition of the increase in paw volume was statistically significant) is not below 25 mg/kg. In addition, the “inhibition of the increase in paw volume, collagen arthritis” value in data set [3] was “dose-dependent inhibition of the increase in paw volume”. Also, in the data set on lymphocytes [4], the “effect on immune function of lymphocytes in collagen arthritis” value was “completely normalized the immune function of both T and B lymphocytes”. Also, in [5] (20 mg/kg p.o.), the “Increase in paw volume” value is 220 µL and the “Protective action in %” value was 49%. In addition, in [5] (40 mg/kg p.o.), the “Increase in paw volume” value amounted to 200 µL and the “Protective action in %” value came out at 54%. Further, in [5] (80 mg/kg p.o.), the “Increase in paw volume” value came out at 10 µL and the “Protective action in %” value is recorded as 98%. For the same molecule, the “protective effect against tissue destruction induced by Adriamycin” value in [5] is “strong, dose-dependent protective effect”. The IC50 in [6] is 600 nM. In data set [7], this molecule registered an IC50 of 3000 nM. In the data set on 5-lipoxygenase, the “inhibition of formation of 5-HETE” value is recorded as “significantly inhibited” and the “inhibition of formation of LTB4” value is on record as “significantly inhibited”.
Turning to `CC(C)(C)c1cc(-c2csc3nc(=O)c(CO)nn23)cc(C(C)(C)C)c1O` [Example 3, 3-(3,5-Di-tert.butyl-4-hydroxyphenyl)-6-hydroxymethyl-7H-thiazolo[3,2-b][1,2,4]triazin-7-one], the “Adjuvant arthritis (% inhibition at 50 mg/kg p.o.)” value in the data set with Adjuvant arthritis was 41%. The TD50 at 24 h in data set [1] was more than 200 mg/kg. For the same molecule, the LD50 at 168 h in the data set “in vivo” (setting [8]) is more than 1200 mg/kg.
`COc1ccc2cc(C(C)C(=O)O)ccc2c1` (stereo not shown) [Naproxen, 2-(6-methoxy-2-naphthyl)-propionic acid, reference compound]: in the data set with Adjuvant arthritis, the ED50 was found to be 17.5 mg/kg and the “Adjuvant arthritis (% inhibition at 50 mg/kg p.o.)” value is recorded as 55%. For the same molecule, the “normalization of the immune reactivity of lymphocytes towards mitogens” value in the data set with lymphocytes [2] is on record as “ineffective”. In addition, in data set [3], the “inhibition of the increase in paw volume, collagen arthritis” value is “only non-significant inhibition values”. For the same molecule, in the data set with lymphocytes [4], the “effect on immune function of lymphocytes in collagen arthritis” value is given as “no effect”. The “effect on Arthus reaction” value with Arthus reaction was “ineffective”. In addition, in [5], the “protective effect against tissue destruction induced by Adriamycin” value was “ineffective”.
In the case of `CCCc1nn2c(-c3cc(C(C)(C)C)c(O)c(C(C)(C)C)c3)csc2nc1=O` [Example 9], the “Adjuvant arthritis (% inhibition at 50 mg/kg p.o.)” value in the data set on Adjuvant arthritis is recorded as 45%. The same molecule yielded a TD50 at 24 h in data set [1] of more than 200 mg/kg. Besides, the LD50 at 168 h in “in vivo” was more than 1200 mg/kg.
